# Assay results reported in PubChem BioAssay (NCI).
#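 Following 48 hours of exposure in 96-well plates, responses at five concentrations were used to interpolate endpoints linearly. GI50 is the concentration that inhibits growth by half. TGI marks complete inhibition of growth.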
# Tests used:
# Test in all cases: DTP human tumour cell line panel, 48 h
# A498 renal = tested on: A498 renal
# COLO 205 colon = tested on: COLO 205 colon
# HL-60(TB) leukemia = tested on: HL-60(TB) leukemia
# HOP-92 NSCLC = tested on: HOP-92 NSCLC
# NCI-H522 lung = tested on: NCI-H522 lung
# NCI/ADR-RES ovarian = tested on: NCI/ADR-RES ovarian
# OVCAR-8 ovarian = tested on: OVCAR-8 ovarian
# PC-3 prostate = tested on: PC-3 prostate
# RPMI-8226 leukemia = tested on: RPMI-8226 leukemia
# SF-268 CNS = tested on: SF-268 CNS
Compound,GI50 (A498 renal) [nM],TGI (A498 renal) [µM],GI50 (COLO 205 colon) [nM],TGI (COLO 205 colon) [µM],GI50 (HL-60(TB) leukemia) [µM],TGI (HL-60(TB) leukemia) [µM],GI50 (HOP-92 NSCLC) [nM],TGI (HOP-92 NSCLC) [µM],GI50 (NCI-H522 lung) [nM],TGI (NCI-H522 lung) [µM],GI50 (NCI/ADR-RES ovarian) [nM],TGI (NCI/ADR-RES ovarian) [µM],GI50 (OVCAR-8 ovarian) [nM],TGI (OVCAR-8 ovarian) [µM],GI50 (PC-3 prostate) [nM],TGI (PC-3 prostate) [µM],GI50 (RPMI-8226 leukemia) [nM],TGI (RPMI-8226 leukemia) [µM],GI50 (SF-268 CNS) [µM],TGI (SF-268 CNS) [µM]
O=C(CCl)N1c2ccccc2Sc2ccc3ccccc3c21,1730,3.31,1690,3.14,1.07,5.13,1160,2.51,509,1.1,2180,5.26,1640,3.71,1470,3.06,1320,4.06,1.64,3.16
COC(=O)[C@]12CC[C@@H](C)[C@H](C)[C@@H]1C1=CC[C@@H]3[C@@]4(C)C=C(O)C(=O)[C@@]5(C)COC(=C54)C[C@@]3(C)[C@]1(C)CC2,15200,32.5,13500,29.6,4.17,19.9,14000,28.9,2570,9.17,14300,45.6,12900,47,4770,18.5,5570,29.7,13.3,31.6
O=C(Nc1ccc(Cl)cc1)c1cc(-c2ccc(Cl)cc2)c2sc(=O)[nH]c2n1,472,3.42,1630,3.54,1.27,6.68,526,3.94,408,3.12,1980,7.61,2040,12.8,1660,12.2,1210,14.2,2.56,22.3
COC(=O)C1(F)C(=O)NC(=O)NC1O (centres undefined),–,> 100,–,> 100,–,> 100,–,> 100,–,> 100,–,> 100,–,> 100,–,> 100,–,> 100,–,> 100
O=C(O)c1cc(N=Cc2ccccc2O)cc(C(=O)O)c1,–,> 100,–,> 100,–,> 100,–,> 100,–,> 100,–,> 100,–,> 100,–,> 100,–,> 100,–,> 100
CN(C)C(=O)c1cc2cnc(Nc3ccc(-c4csc5c(=O)cc(N6CCOCC6)oc45)cc3)nc2n1C1CCCC1,54.7,0.244,166,1.32,0.0877,0.698,54.1,41.9,247,1.3,375,> 65.6,268,> 30.5,220,1.47,142,0.533,0.222,–
COc1ccccc1/C=N\N=C(N/N=C/c1ccccc1OC)N/N=C/c1ccccc1OC,2730,9.92,2110,4.63,3.09,9.26,1920,5.34,4550,> 100,3120,10.5,3230,14.5,2770,> 100,2960,12.3,3.69,> 100
COc1cc(-c2nc3sc4c(c3c(=O)[nH]2)CCCCCC4)cc(OC)c1OC,694,3.17,1160,10.3,1.36,13,887,9.45,887,9.46,892,> 33.2,1520,> 33.2,1500,> 33.2,1190,12.6,2.97,> 33.2
Cc1cc(C)c(O)c(CN(C)Cc2cc(Cl)cc(Cl)c2O)c1,5690,21.9,4990,15.3,4,33,3070,13.3,2220,6.14,2890,12.5,2780,12.1,6970,42.3,3120,23.2,3.26,19.2
N#CCc1ncc(-c2ccc(C(F)(F)F)cc2)c(NC2CCCCCC2)n1,> 10000,> 10,> 10000,> 10,> 10,> 10,> 10000,> 10,> 10000,> 10,> 10000,> 10,> 10000,> 10,> 10000,> 10,> 10000,> 10,> 10,> 10
O=c1cc(-c2ccccc2)[nH]n1-c1nc2ccccc2[nH]1,3720,22.9,27800,> 100,4.52,29.1,4250,47.7,3650,17.6,3680,> 100,4500,> 100,4220,44.5,3590,52.4,8.67,> 100
c1ccc(-c2nc(-c3ccccc3)c(-c3ccccc3)[nH]2)cc1,–,> 100,–,> 100,–,36.9,–,> 100,–,> 100,–,> 100,–,> 100,–,> 100,–,> 72.9,–,> 100
COc1ccc(-c2ccc(-c3ccc(-c4ccc(C(=N)N)cc4)s3)s2)cc1OC,11000,27.8,1370,4.57,7.47,28.1,2180,6.1,14100,62.2,2510,6.54,3760,> 100,2780,9.39,2860,13.4,19.5,50.9
Cc1c2c[n+](C(C)C)ccc2c(C)c2c1[nH]c1ccccc12,1940,64,1770,6.46,3.13,19.2,1860,6.95,2260,11.4,56500,> 100,1460,32.1,2590,40.6,1820,13.1,0.475,14.9
